The values that follow come from patent US9732075B2, “Benzimidazole-proline derivatives” (IDORSIA PHARMACEUTICALS LTD, priority 2012, dated 2017).

For one experiment, the target named is human orexin-1 receptor (Homo sapiens (Human), UniProt O43613). Description: In vitro assay: intracellular calcium measurements (FLIPR), antagonistic activity. Format: cell-based. The conditions noted are these: CHO cells expressing human orexin-1 receptor, orexin-A agonist, geometric mean, read-out: IC50 Ox1. On the procedure:
(§1) In Vitro Assay: Intracellular Calcium Measurements:
(§2) Chinese hamster ovary (CHO) cells expressing the human orexin-1 receptor and the human orexin-2 receptor, respectively, are grown in culture medium (Ham F-12 with L-Glutamine) containing 300 μg/ml G418, 100 U/ml penicillin, 100 μg/ml streptomycin and 10% heat inactivated fetal calf serum (FCS). The cells are seeded at 20,000 cells/well into 384-well black clear bottom sterile plates (Greiner). The seeded plates are incubated overnight at 37° C. in 5% CO2.
(§3) Human orexin-A as an agonist is prepared as 1 mM stock solution in MeOH: water (1:1), diluted in HBSS containing 0.1% bovine serum albumin (BSA), NaHCO3: 0.375 g/l and 20 mM HEPES for use in the assay at a final concentration of 3 nM.
(§4) Antagonists are prepared as 10 mM stock solution in DMSO, then diluted in 384-well plates using DMSO followed by a transfer of the dilutions into in HBSS containing 0.1% bovine serum albumin (BSA), NaHCO3: 0.375 g/l and 20 mM HEPES. On the day of the assay, 50 μl of staining buffer (HBSS containing 1% FCS, 20 mM HEPES, NaHCO3: 0.375 g/l, 5 mM probenecid (Sigma) and […] of the fluorescent calcium indicator fluo-4 AM (1 mM stock solution in DMSO, containing 10% pluronic) is added to each well. The 384-well cell-plates are incubated for 50 min at 37° C. in 5% CO2 followed by equilibration at RT for 30 min before measurement.
(§5) Within the Fluorescent Imaging Plate Reader (FLIPR Tetra, Molecular Devices), antagonists are added to the plate in a volume of 10 μl/well, incubated for 120 min and finally 10 μl/well of agonist is added. Fluorescence is measured for each well at 1 second intervals, and the height of each fluorescence peak is compared to the height of the fluorescence peak induced by an approximate EC70 (for example 5 nM) of orexin-A with vehicle in place of antagonist. The IC50 value (the concentration of compound needed to inhibit 50% of the agonistic response) is determined and may be normalized using the obtained IC50 value of a on-plate reference compound. Optimized conditions are achieved by adjustment of pipetting speed and cell splitting regime. The calculated IC50 values may fluctuate depending on the daily cellular assay performance. Fluctuations of this kind are known to those skilled in the art. Average IC50 values from several measurements are given as geometric mean values.
Background: Calcium assays in cells follow changes in intracellular calcium, usually with a dye or a luminescent sensor.

The next experiment deals with human orexin-2 receptor (Homo sapiens (Human), UniProt O43614). The description is as above. Format: cell-based. The conditions noted are these: CHO cells expressing human orexin-2 receptor, orexin-A agonist, geometric mean, read-out: IC50 Ox2. On the procedure: as §1, §2, §3, §4, §5

pIC50: −log10 of the molar value.

Sequence of human orexin-2 receptor (O43614 whole entry): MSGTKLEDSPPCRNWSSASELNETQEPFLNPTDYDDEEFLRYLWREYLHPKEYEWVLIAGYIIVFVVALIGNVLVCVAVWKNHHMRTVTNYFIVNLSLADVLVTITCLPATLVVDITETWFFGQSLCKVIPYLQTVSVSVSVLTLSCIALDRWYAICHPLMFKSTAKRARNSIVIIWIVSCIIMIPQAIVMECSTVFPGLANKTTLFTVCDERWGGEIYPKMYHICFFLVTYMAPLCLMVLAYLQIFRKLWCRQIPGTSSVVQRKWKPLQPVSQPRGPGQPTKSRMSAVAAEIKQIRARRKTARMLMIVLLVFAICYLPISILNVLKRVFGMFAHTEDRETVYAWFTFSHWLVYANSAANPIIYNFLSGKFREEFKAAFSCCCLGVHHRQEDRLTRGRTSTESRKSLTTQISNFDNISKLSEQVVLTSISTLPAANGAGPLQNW
Sequence of human orexin-1 receptor (O43613 whole entry): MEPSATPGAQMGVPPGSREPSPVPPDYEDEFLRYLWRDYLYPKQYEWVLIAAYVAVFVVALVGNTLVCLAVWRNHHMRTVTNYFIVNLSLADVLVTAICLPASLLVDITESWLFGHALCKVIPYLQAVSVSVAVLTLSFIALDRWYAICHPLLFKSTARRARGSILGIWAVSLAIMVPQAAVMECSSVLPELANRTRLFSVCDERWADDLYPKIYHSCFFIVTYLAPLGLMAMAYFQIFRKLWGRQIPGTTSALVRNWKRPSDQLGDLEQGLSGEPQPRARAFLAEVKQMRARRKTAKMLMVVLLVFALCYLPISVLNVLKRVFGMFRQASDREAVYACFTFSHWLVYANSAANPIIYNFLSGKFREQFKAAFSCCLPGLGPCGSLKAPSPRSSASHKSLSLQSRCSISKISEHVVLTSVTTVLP

As usually defined, the pIC50 is −log10 of the IC50, conventionally taken in molar units. As to `Cc1cc(C)c2nc(C3CCCN3C(=O)c3nc(C)sc3-c3cccc(Cl)c3)[nH]c2c1` (racemic) [Ex. 1.102], the pIC50 on human orexin-1 receptor and at human orexin-2 receptor was 7.77 throughout.

Turning to `Cc1nc(C(=O)N2CCCC2c2nc3c4c(ccc3[nH]2)OCCO4)c(-c2cccc(Cl)c2)s1` (racemic) [Ex. 1.117], the pIC50 is 6.87 at human orexin-1 receptor and 7.25 on human orexin-2 receptor.

In the case of `C=C1CC(c2nc3cc(OC)ccc3[nH]2)N(C(=O)c2cc(C)sc2-c2ccc(C)c(C)c2)C1` (racemic) [Ex. 6.71], the results for the pIC50 at human orexin-1 receptor and on human orexin-2 receptor were 7.62 and 8.70, respectively.

Take `C=C1CC(c2nc3cccc(SC)c3[nH]2)N(C(=O)c2cc(C)sc2-c2ccc(C)c(C)c2)C1` (racemic) [Ex. 6.72]: the pIC50 on human orexin-1 receptor is 8.40; on human orexin-2 receptor, 8.22.

As to `C=C1CC(c2nc3cc(C)c(C)cc3[nH]2)N(C(=O)c2cc(C)sc2-c2ccc(C)c(C)c2)C1` (racemic) [Ex. 6.75], the pIC50 on human orexin-1 receptor was 8.10; at human orexin-2 receptor, 8.40.

Take `C=C1CC(c2nc3cc(Cl)c(C)cc3[nH]2)N(C(=O)c2cc(C)sc2-c2ccc(C)c(C)c2)C1` (racemic) [Ex. 6.80]: the values for the negative logarithm of the IC50 (pIC50) at human orexin-1 receptor and at human orexin-2 receptor were 7.89 and 7.72, respectively.

Regarding `C=C1CC(c2nc3c(OC)ccc(OC)c3[nH]2)N(C(=O)c2cc(C)sc2-c2ccc(C)c(C)c2)C1` (racemic) [Ex. 6.83], the results for the pIC50 at human orexin-1 receptor and on human orexin-2 receptor were 8.10 and 7.64, respectively.

Turning to `C=C1CC(c2nc3cc(OC)ccc3[nH]2)N(C(=O)c2nc(C3CC3)sc2-c2cccc(C)c2)C1` (racemic) [Ex. 6.86], the results for the negative-log IC50 (pIC50) on human orexin-1 receptor and at human orexin-2 receptor were 7.66 and 7.70, respectively.

As for `C=C1CC(c2nc3cccc(SC)c3[nH]2)N(C(=O)c2nc(C3CC3)sc2-c2cccc(C)c2)C1` (racemic) [Ex. 6.87], the pIC50 at human orexin-1 receptor is 9.00; at human orexin-2 receptor, 8.70.

Regarding `C=C1CC(c2nc3c(C)c(C)ccc3[nH]2)N(C(=O)c2nc(C3CC3)sc2-c2cccc(C)c2)C1` (racemic) [Ex. 6.92], the pIC50 on human orexin-1 receptor is 8.40; on human orexin-2 receptor it was 8.70.

Turning to `C=C1CC(c2nc3cc(Cl)c(C)cc3[nH]2)N(C(=O)c2nc(C3CC3)sc2-c2cccc(C)c2)C1` (racemic) [Ex. 6.95], the values for the pIC50 on human orexin-1 receptor and on human orexin-2 receptor were 8.05 and 8.70, respectively.

Consider `C=C1CC(c2nc3cc(Cl)c(C(F)(F)F)cc3[nH]2)N(C(=O)c2nc(C3CC3)sc2-c2cccc(C)c2)C1` (racemic) [Ex. 6.97], for which the pIC50 at human orexin-1 receptor was 7.85; at human orexin-2 receptor, 8.00.

Turning to `Cc1nc(C(=O)N2CCCC2c2nc3cc(F)c(Cl)cc3[nH]2)c(-c2cccc(Cl)c2)s1` (stereo not shown) [Ex. 1.98], the pIC50 at human orexin-1 receptor was 6.98.

For the compound `CO[C@H]1CN(C(=O)c2cc(C)c(C)cc2-n2nccn2)C(C)(c2nc3c(C)c(Cl)ccc3[nH]2)C1` (stereo partly shown) [Ex. 3.48], on human orexin-2 receptor, the negative-log IC50 (pIC50) was 8.40.

In the case of `Cc1ccc(-n2nccn2)c(C(=O)N2CC[C@H](C)[C@H]2c2nc3c(C)c(Cl)ccc3[nH]2)c1F` [Ex. 4.68], the negative-log IC50 (pIC50) on human orexin-1 receptor is 8.70.

For the compound `Cc1nc(C(=O)N2CC[C@H](C)[C@H]2c2nc3cc(C(F)(F)F)ccc3[nH]2)c(-c2ccc(C)c(C)c2)s1` [Ex. 4.145], the pIC50 at human orexin-2 receptor was 6.20.

Consider `Cc1ccc(-c2sc(C)nc2C(=O)N2CC[C@H](C)[C@H]2c2nc3c(C(F)(F)F)cccc3[nH]2)cc1` [Ex. 4.153], for which, at human orexin-2 receptor, the pIC50 is 7.10.

In the case of `C[C@@]1(c2nc3cc(F)c(Br)cc3[nH]2)CCCN1C(=O)c1cc(F)ccc1-n1nccn1` [Ex. 5.126], the pIC50 at human orexin-1 receptor is 6.93.

Regarding `Cc1cc(C(=O)N2CCC[C@@]2(C)c2nc3cc(C(F)(F)F)c(Cl)cc3[nH]2)c(-n2nccn2)cc1C` [Ex. 5.137], on human orexin-2 receptor, the pIC50 is 8.22.

Regarding `Cc1nc(C(=O)N2CCC[C@@]2(C)c2nc3c(C)c(C)c(Br)cc3[nH]2)c(-c2cc(F)cc(F)c2)s1` [Ex. 5.274], the negative logarithm of the IC50 (pIC50) on human orexin-2 receptor was 8.10.

For `Cc1ccc(-c2ncccn2)c(C(=O)N2CCC[C@@]2(C)c2nc3cc(C(F)(F)F)c(Cl)cc3[nH]2)c1` [Ex. 5.279], the pIC50 at human orexin-2 receptor was 8.10.

As for `Cc1ccc(-c2ncccn2)c(C(=O)N2CCC[C@@]2(C)c2nc3ccc(F)c(F)c3[nH]2)c1` [Ex. 5.283], the pIC50 on human orexin-1 receptor was 7.06.
